{
  "source": "patent US12180207B2",
  "about": "(ARRAY BIOPHARMA INC., priority 2018, dated 2024)",
  "format_in_all_cases": "cell-based",
  "key": {"[1]": {"biological_target": "HEK-293 cells transfected with dox-inducible human wild type FGFR1 (Homo sapiens (Human), UniProt P11362)", "sequence (P11362 22-822)": "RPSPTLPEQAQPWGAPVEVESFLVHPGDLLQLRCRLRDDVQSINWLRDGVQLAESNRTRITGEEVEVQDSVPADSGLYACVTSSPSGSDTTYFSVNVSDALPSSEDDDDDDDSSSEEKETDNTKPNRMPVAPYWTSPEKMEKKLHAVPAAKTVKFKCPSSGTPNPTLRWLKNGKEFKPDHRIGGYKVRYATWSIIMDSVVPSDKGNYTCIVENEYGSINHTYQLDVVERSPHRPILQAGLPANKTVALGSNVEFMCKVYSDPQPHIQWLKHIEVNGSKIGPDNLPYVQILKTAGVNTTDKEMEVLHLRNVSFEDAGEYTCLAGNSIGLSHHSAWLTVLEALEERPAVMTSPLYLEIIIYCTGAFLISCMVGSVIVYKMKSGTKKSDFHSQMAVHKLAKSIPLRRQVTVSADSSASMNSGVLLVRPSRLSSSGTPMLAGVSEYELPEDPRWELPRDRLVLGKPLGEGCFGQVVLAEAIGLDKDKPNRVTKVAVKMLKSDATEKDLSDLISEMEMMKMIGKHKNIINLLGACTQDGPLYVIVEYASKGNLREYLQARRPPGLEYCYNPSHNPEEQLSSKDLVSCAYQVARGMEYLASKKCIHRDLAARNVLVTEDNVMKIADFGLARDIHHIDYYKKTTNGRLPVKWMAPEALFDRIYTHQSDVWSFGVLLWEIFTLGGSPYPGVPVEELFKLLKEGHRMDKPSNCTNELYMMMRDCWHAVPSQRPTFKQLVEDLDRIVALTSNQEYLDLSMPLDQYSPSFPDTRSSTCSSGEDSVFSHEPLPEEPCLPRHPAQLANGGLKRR", "assay": "FGFR1 pERK cell assay", "details": "HEK-293 dox-inducible FGFR1, 1 hour compound, 100 ng/ml FGF-acidic; maximum concentration 5 μM", "procedure": "(§1) FGFR1 pERK Cell Assay: • HEK-293 cells transfected with doxycycline(dox)-inducible human wild type FGFR1 (SEQ ID NO: 1) were plated in a collagen or poly-D-lysine coated 96 well flat bottom plates at 4×10^5 cells/well in complete Dulbecco's Modified Eagle Medium (DMEM) containing 10% FBS and 1 μg/ml doxycycline and allowed to attach for 24 h at 37° C., 5% CO2. Cells were treated with compound using 1:3 serial dilutions with a maximum final concentration of 5 μM. Compound was incubated on cells for 1 hour at 37° C., 5% CO2. Cells were then stimulated with a final concentration of 100 ng/ml human FGF-acidic (R&D Systems Cat number 232-FA/CF) for 5 minutes at 37° C., 5% CO2. Medium was removed, and cells were lysed with lysis buffer containing phosphatase and protease inhibitors. Phospho ERK1/2 was measured using the Meso Scale Discovery sandwich assay (Meso Scale Discovery cat. no. K151DWD). The assay captures phospho ERK1/2 and detects with a sulfo-tagged total ERK1/2 antibody. The chemiluminescent signal was read on the Sector Imager Plate reader. 100 POC was determined using no test compound and 0 POC was determined using a control compound. The POC values were fit to a 4-parameter logistic curve as a function of the concentration of the compound, and the IC50 value is the point where the curve crosses 50 POC."}, "[2]": {"biological_target": "HEK-293 cells transfected with dox-inducible human wild type FGFR3 (Homo sapiens (Human), UniProt P22607)", "sequence (P22607 23-806)": "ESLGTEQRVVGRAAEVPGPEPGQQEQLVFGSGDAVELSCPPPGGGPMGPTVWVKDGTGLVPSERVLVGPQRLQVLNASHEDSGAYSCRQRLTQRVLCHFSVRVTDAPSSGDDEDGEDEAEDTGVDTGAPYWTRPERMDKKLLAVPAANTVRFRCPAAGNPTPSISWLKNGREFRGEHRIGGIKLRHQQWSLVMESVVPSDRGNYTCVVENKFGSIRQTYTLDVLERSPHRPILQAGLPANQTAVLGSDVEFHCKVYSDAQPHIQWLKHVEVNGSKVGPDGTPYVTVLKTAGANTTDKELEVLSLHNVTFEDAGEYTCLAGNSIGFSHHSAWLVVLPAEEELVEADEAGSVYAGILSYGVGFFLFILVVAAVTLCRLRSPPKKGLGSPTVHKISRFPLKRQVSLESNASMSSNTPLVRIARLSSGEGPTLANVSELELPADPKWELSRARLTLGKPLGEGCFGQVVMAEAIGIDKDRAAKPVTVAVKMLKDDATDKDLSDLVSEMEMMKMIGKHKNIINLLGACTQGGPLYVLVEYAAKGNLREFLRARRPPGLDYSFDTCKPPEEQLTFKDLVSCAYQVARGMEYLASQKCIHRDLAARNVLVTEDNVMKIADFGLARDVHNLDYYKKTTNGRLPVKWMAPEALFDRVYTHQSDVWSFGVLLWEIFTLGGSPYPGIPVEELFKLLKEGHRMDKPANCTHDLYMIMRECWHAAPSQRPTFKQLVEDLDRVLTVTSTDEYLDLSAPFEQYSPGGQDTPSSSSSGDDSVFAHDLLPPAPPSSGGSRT", "assay": "FGFR3 pERK cell assay", "details": "HEK-293 dox-inducible FGFR3, 1 hour compound, 100 ng/ml FGF-acidic; maximum concentration 5 μM", "procedure": "as §1, with “FGFR3 pERK” for “FGFR1 pERK”, “with dox-inducible” for “with doxycycline(dox)-inducible”, “type FGFR3” for “type FGFR1”, “NO: 5)” for “NO: 1)”, “complete DMEM medium” for “complete Dulbecco's Modified Eagle Medium (DMEM)”, “test compounds” for “test compound”"}, "[3]": {"biological_target": "HEK-293 cells transfected with dox-inducible human wild type FGFR2 (Homo sapiens (Human), UniProt P21802)", "sequence (P21802 22-821)": "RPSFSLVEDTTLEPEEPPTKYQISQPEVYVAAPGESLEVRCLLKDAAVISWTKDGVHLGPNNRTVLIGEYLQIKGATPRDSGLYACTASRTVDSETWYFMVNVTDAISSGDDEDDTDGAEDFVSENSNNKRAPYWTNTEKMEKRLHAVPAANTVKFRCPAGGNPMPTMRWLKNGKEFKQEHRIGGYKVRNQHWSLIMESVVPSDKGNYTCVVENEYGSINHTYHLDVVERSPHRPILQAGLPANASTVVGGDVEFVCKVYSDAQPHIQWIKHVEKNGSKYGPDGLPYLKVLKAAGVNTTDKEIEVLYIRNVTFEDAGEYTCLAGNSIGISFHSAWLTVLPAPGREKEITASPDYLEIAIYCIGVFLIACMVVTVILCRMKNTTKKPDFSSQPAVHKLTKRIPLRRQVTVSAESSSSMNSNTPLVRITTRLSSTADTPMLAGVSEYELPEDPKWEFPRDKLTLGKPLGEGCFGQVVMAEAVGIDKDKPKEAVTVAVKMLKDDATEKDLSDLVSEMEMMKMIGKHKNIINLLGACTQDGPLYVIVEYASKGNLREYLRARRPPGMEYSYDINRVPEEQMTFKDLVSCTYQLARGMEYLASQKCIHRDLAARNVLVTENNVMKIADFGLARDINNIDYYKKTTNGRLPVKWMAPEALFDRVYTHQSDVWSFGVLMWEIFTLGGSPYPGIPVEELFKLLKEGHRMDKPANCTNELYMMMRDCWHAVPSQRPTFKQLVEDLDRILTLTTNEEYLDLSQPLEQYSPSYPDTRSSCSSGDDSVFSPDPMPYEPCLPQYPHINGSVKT", "assay": "FGFR2 pFGFR cell assay (ELISA)", "details": "HEK-293 dox-inducible FGFR2, 1 hour compound, 30 ng/ml FGF-acidic", "procedure": "FGFR2 pFGFR Cell Assay: • HEK-293 cells transfected with dox-inducible human wild type FGFR2 (SEQ ID NO: 3) were plated in a collagen or poly-D-lysine coated 96 well flat bottom plates at 4×10^5 cells/well in complete DMEM medium containing 10% FBS and 1 μg/ml doxycycline and allowed to attach for 24 h at 37° C., 5% CO2. Cells were treated with compound using 1:3 serial dilutions with a maximum final concentration of 5 μM. Compound was incubated on cells for 1 hour at 37° C., 5% CO2. Cells were then stimulated with a final concentration of 30 ng/ml human FGF-acidic (R&D Systems Cat number 232-FA/CF) for 5 minutes at 37° C., 5% CO2. Medium was removed and cells were lysed with lysis buffer containing phosphatase and protease inhibitors. Phospho FGFR2 was measured by ELISA (R&D Systems cat. no. DYC684). The ELISA captures total FGFR2 and detects total phospho tyrosine. Optical density was measured for each well using a Versamax reader at a wavelength of 450 nm. 100 POC was determined using no test compounds and 0 POC was determined using a control compound. The POC values were fit to a 4-parameter logistic curve as a function of the concentration of the compound, and the IC50 value is the point where the curve crosses 50 POC."}},
  "data": [
    {"smiles": "COc1cc(-c2cnn(C3CCN(C(=O)C4CN(C(=O)/C=C/CF)C4)CC3)c2)cn2ncc(C#N)c12", "note": "[Example 142]", "values": [
      {"measurement": "IC50", "setting": "[1]", "value": 769, "unit": "nM"},
      {"measurement": "IC50", "setting": "[2]", "value": 119, "unit": "nM"},
      {"measurement": "IC50", "setting": "[3]", "value": 424, "unit": "nM"}
    ]},
    {"smiles": "COc1cc(-c2cnn(C3CCN(C(=O)/C=C/CN(C)C)CC3)c2)cn2ncc(C#N)c12", "note": "[Example 144, (E)-6-(1-(1-(4-(dimethylamino)benoyl)piperidin-4-yl)-1H-pyrazol-4-yl)-4-methoxypyrazol14 5o[1,5-a]pyridine-3-carbonitrile]", "values": [
      {"measurement": "IC50", "setting": "[3]", "value": 34, "unit": "nM"}
    ]}
  ]
}
